Laboratory results reported in PMC3047451 (Journal of medicinal chemistry, 2011).
Entries after “also recorded” stand apart in the source; their conditions may differ. Where two headings read alike, the source gives them in different places.

How the values were obtained:
μ-opioid receptor [1] = molecular target: T1, μ-opioid receptor (Homo sapiens, UniProt P35372); experiment: biochemical
[2] = molecular target: T2, cloned human μ-opioid receptor (Homo sapiens, UniProt P35372); experiment: biochemical
[3] = molecular target: T2, cloned human μ-opioid receptor; details: for fold more potent than naloxone as μ-antagonist: [35S]GTP-γ-S functional binding assay; for μ-antagonist potency compared with naloxone or naltrexone (in words): [35S]GTP-γ-S assay; for Ke: shift of DAMGO dose-response curve by test agent, hMOR-CHO membranes, ± SD
δ-opioid receptor = δ-opioid receptor (Homo sapiens, UniProt P41143); experiment: biochemical; type: binding
κ-opioid receptor = κ-opioid receptor (Homo sapiens, UniProt P41145); experiment: biochemical; type: binding
[4] = molecular target: T2, cloned human μ-opioid receptor; details: full inverse agonist curve; cited from earlier work
μ-opioid receptor [5] = molecular target: T1, μ-opioid receptor; details: for Ki: read-out: Ki, μ
[6] = molecular target: T2, cloned human μ-opioid receptor; details: 10 μM, non-dependent hMOR cells
[7] = read-out: Ki, δ, 125I-IOXY, hDOR-CHO, n = 3 (± SD)

κ-opioid receptor, sequence (P41145 whole entry): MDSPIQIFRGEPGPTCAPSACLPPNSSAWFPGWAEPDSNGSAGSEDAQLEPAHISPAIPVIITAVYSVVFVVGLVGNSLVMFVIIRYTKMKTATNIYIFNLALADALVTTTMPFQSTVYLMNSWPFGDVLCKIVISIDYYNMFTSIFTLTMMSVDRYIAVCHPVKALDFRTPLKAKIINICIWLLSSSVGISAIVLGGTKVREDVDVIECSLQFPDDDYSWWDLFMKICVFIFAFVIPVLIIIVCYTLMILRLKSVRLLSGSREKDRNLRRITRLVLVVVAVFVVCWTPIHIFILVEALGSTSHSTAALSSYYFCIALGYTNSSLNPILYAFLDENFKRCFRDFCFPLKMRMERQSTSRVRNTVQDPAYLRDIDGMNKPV
δ-opioid receptor, sequence (P41143 whole entry): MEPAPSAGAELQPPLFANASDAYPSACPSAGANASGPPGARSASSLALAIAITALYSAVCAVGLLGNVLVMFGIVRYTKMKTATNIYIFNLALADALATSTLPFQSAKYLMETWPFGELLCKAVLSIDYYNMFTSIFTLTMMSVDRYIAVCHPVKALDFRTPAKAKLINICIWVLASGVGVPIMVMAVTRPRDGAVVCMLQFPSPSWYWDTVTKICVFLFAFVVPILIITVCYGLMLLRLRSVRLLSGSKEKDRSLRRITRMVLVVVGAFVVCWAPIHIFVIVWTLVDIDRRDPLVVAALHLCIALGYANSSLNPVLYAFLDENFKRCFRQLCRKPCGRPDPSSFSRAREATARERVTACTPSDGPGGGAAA
T2 sequence (P35372 whole entry): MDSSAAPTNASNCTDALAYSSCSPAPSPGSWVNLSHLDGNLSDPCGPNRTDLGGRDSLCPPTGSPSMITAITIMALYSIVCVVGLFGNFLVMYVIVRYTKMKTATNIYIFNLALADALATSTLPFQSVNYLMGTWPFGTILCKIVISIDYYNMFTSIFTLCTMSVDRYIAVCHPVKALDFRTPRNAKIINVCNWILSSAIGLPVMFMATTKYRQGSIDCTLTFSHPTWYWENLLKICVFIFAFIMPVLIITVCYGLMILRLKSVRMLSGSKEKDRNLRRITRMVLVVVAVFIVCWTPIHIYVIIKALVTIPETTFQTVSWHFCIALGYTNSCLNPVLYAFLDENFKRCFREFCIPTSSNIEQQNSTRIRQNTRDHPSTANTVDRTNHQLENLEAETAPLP
T1 sequence (P35372 whole entry): as above

SMILES	Ki (μ-opioid receptor [1]) [nM]	Kb [2] [nM]	fold more potent than naloxone as μ-antagonist [3] [fold]	Ki (δ-opioid receptor) [nM]	Ki (κ-opioid receptor) [nM]	inverse agonist activity at non-dependent μ-opioid receptors [4]	μ-antagonist potency compared with naloxone or naltrexone (in words) [3]	Ki (μ-opioid receptor [5]) [nM]	Ke [3] [nM]	Ki (δ-opioid receptor; [7]) [nM]	Ki (κ-opioid receptor; read-out: Ki, κ) [nM]	fold difference in μ Ki between the cis stereoisomers (μ-opioid receptor [5]) [fold]	inverse agonist activity (effect on [35S]GTP-γ-S binding) [6]
Oc1cccc([C@@]23CCC[C@@H](C2)N(CC=Cc2ccccc2)CC3)c1 [(+)−6, 3-((1S,5R)-2-Cinnamyl-2-azabicyclo[3.3.1]nonan-5-yl)phenol]	2 ± 0.13	0.58 ± 0.07	4	138 ± 5	125 ± 3	–	–	–	–	–	–	–	–
Oc1cccc([C@@]23CCC[C@@H](C2)N(C/C=C\c2ccccc2)CC3)c1 [(+)−9, 3-((1S,5R)-2-((Z)-3-phenylallyl)-2-azabicyclo[3.3.1]nonan-5-yl)phenol]	26 ± 2	3.1 ± 0.7	–	454 ± 25	123 ± 4	inverse agonist	about as potent as naloxone	–	–	–	–	–	–
Oc1cccc([C@]23CCC[C@H](C2)N(C[C@H]2C[C@@H]2c2ccccc2)CC3)c1 [(+)−29, 3-((1R,5S)-2-(((1’S,2’S)-2-Phenylcyclopropyl)methyl)-2-azabicyclo[3.3.1]nonan-5-yl)phenol]	–	–	–	–	–	–	–	3 ± 0.26	0.17 ± 0.02	165 ± 7	72 ± 4	–	–
Oc1cccc([C@@]23CCC[C@@H](C2)N(C[C@H]2C[C@@H]2c2ccccc2)CC3)c1 [(+)−30, 3-((1S,5R)-2-(((1’S,2’S)-2-Phenylcyclopropyl)methyl)-2-azabicyclo[3.3.1]nonan-5-yl)phenol]	–	–	–	–	–	–	equipotent with naloxone; also recorded: about as potent as naloxone	16 ± 1	2.2 ± 0.4	183 ± 7	323 ± 15	–	–
Oc1cccc([C@]23CCC[C@H](C2)N(C[C@H]2C[C@H]2c2ccccc2)CC3)c1 [(+)−31, 3-((1R,5S)-2-(((1’S,2’R)-2-Phenylcyclopropyl)methyl)-2-azabicyclo[3.3.1]nonan-5-yl)phenol]	–	–	–	–	–	–	–	459 ± 14	33 ± 7	1980 ± 54	475 ± 33	~42	–
Oc1cccc([C@@]23CCC[C@@H](C2)N(C[C@H]2C[C@H]2c2ccccc2)CC3)c1 [(+)−32, 3-((1S,5R)-2-(((1’S,2’R)-2-Phenylcyclopropyl)methyl)-2-azabicyclo[3.3.1]nonan-5-yl)phenol]	–	–	–	–	–	–	–	76 ± 0.3	18 ± 6	547 ± 23	174 ± 12	–	–
Oc1cccc([C@]23CCC[C@H](C2)N(CC=Cc2ccccc2)CC3)c1 [(−)−6, 3-((1R,5S)-2-Cinnamyl-2-azabicyclo[3.3.1]nonan-5-yl)phenol]	6 ± 0.39	6.6 ± 0.7	–	152 ± 5	225 ± 7	–	four fold less active as opioid antagonists	–	–	–	–	–	little or no activity as an inverse agonist; also recorded: did not act as inverse agonists
Oc1cccc([C@]23CCC[C@H](C2)N(C/C=C\c2ccccc2)CC3)c1 [(−)−9, 3-((1R,5S)-2-((Z)-3-phenylallyl)-2-azabicyclo[3.3.1]nonan-5-yl)phenol]	14 ± 0.7	7.7 ± 1.6	–	359 ± 18	367 ± 18	–	–	–	–	–	–	–	–
Oc1cccc([C@@]23CCC[C@@H](C2)N(C[C@@H]2C[C@H]2c2ccccc2)CC3)c1 [(−)−29, 3-((1S,5R)-2-(((1’R,2’R)-2-Phenylcyclopropyl)methyl)-2-azabicyclo[3.3.1]nonan-5-yl)phenol]	–	–	–	–	–	–	–	47 ± 3	9.4 ± 1.5	800 ± 29	390 ± 16	–	–
Oc1cccc([C@]23CCC[C@H](C2)N(C[C@@H]2C[C@H]2c2ccccc2)CC3)c1 [(−)−30, 3-((1R,5S)-2-(((1’R,2’R)-2-Phenylcyclopropyl)methyl)-2-azabicyclo[3.3.1]nonan-5-yl)phenol]	–	–	7	–	–	–	about equipotent with naltrexone	4 ± 0.27	0.31 ± 0.06	200 ± 10	210 ± 13	–	–
Oc1cccc([C@@]23CCC[C@@H](C2)N(C[C@@H]2C[C@@H]2c2ccccc2)CC3)c1 [(−)−31, 3-((1S,5R)-2-(((1’R,2’S)-2-Phenylcyclopropyl)methyl)-2-azabicyclo[3.3.1]nonan-5-yl)phenol]	–	–	–	–	–	–	–	265 ± 17	8.6 ± 1.9	610 ± 25	153 ± 7	–	–
Oc1cccc([C@]23CCC[C@H](C2)N(C[C@@H]2C[C@@H]2c2ccccc2)CC3)c1 [(−)−32, 3-((1R,5S)-2-(((1’R,2’S)-2-Phenylcyclopropyl)methyl)-2-azabicyclo[3.3.1]nonan-5-yl)phenol]	–	–	–	–	–	–	four fold less active as opioid antagonists	11 ± 0.9	8.2 ± 1.8	196 ± 6	322 ± 22	–	did not act as inverse agonists
